How the values were obtained:
[1] = test system: IMR32 neuroblastoma cells overexpressing C99-YFP; test: Western blotting of IMR32 cells overexpressing C99-YFP; type: cell-based, human; details: compound 1 μM, 37° C., 24 h
Description: (A) IMR32 cells overexpressing C99-YFP were grown with 2 ml fresh culture medium in 6-well plates, and treated with 1 μM CL-387,785 or DAPT at 37° C. for 24 h. The cell extracts were analyzed by Western blotting. (B) Conditional media were harvested and processed for determination of secreted Aβ40 using a colorimetric Aβ40-specific ELISA kit. (C) C99-YFP-expressing IMR32 cells (160,000 cells/well) were seeded onto 6-well plates and cultured at 37° C. for 24 h, and infected with ErbB1- or ErbB2-targeting shRNA lentivirus for an additional 48 h. Infection mixtures were replaced with 2 ml fresh culture medium, and infected cells were then incubated at 37° C. for an additional 24 h. The cell extracts were analyzed by Western blotting with anti-GFP antibody. (D) The conditioned media were harvested and processed for determination of secreted Aβ40. Data are the mean±SD from three independent experiments, and were analyzed by Student's t-tests. * p<0.05. […]
Preparation of cell extracts. […] Following the removal of cell debris by centrifugation, clarified lysates were processed for immunoprecipitation, Western blotting, or quantification of BCA protein content.
Western blotting analysis. Protein concentration was measured with the BCA Protein Assay Kit (Pierce). […] Quantitative analyses of blot images were processed using Image J software (NIH) to determine the relative densities of immunoreactive bands.

[2] = test system: zebrafish embryos expressing GFP-tagged C99; test: Phenotype of C99-expressing zebrafish embryos (curved trunk, Notch-dependent somite development); type: in vivo; details: treated from 48 hpf to 72 hpf, scored at 72 hpf, n=90

CC#CC(=O)Nc1ccc2ncnc(Nc3cccc(Br)c3)c2c1 [CL-387,785, N-[4-[(3-bromophenyl)amino]-6-quinazolinyl]-2-butynamide]
level of AICD [1]: significantly reduced
level of C99 [1]: significantly reduced
embryo phenotype (trunk, tail, pigmentation; developmental defects) [2]: all but one CL-387,785-treated embryos exhibited wild-type trunks and tails with normal pigmentation

— US10576082B2, “ErbB2 regulates autophagic flux to modulate the proteostasis of APP-CTFs in alzheimer's disease” (Academia Sinica, priority 2016, dated 2020)
